In patent US20200339511A1, “Substituted indoline derivatives as dengue viral replication inhibitors” (priority 2016, published 2020):
Read-outs that look alike come from different tables or passages of the source.

Columns and labels:
DENV-1 strain TC974#666 = assay: Tetravalent RT-qPCR assay, serotype 1; format: cell-based, Dengue virus; conditions: Dengue virus, DENV1, Vero, 72 h, RT-qPCR serotype 1 TC974#666, Protocol A, Vero cells, day 3
Protocol: (§1) Tetravalent reverse transcriptase quantitative-PCR (RT-qPCR) assay The antiviral activity of the compounds of the invention was tested against DENV-1 strain TC974#666 (NCPV), DENV-2 strain 16681, DENV-3 strain H87 (NCPV) and DENV-4 strain H241 (NCPV) in a RT-qPCR assay. Therefore, Vero cells were infected with either DENV-1, or -2, or -3, or -4 in the presence or absence of test compounds. At day 3 post-infection, the cells were lysed and cell lysates were used to prepare cDNA of both a viral target (the 3′UTR of DENV; Table 2) and a cellular reference gene (β-actin, Table 2). Subsequently, a duplex real time PCR was performed on a Lightcycler480 instrument. The generated Cp value is inversely proportional to the amount of RNA expression of these targets. Inhibition of DENV replication by a test compound results in a shift of Cp's for the 3′UTR gene. On the other hand, if a test compound is toxic to the cells, a similar effect on β-actin expression will be observed. The comparative ΔΔCp method is used to calculate EC50, which is based on the relative gene expression of the target gene (3′UTR) normalized with the cellular housekeeping gene (β-actin). In addition, CC50 values are determined based on the Cp values acquired for the housekeeping gene β-actin.
(§2) The culture medium consisted of minimal essential medium supplemented with 2% of heat-inactivated fetal calf serum, 0.04% gentamycin (50mg/mL) and 2 mM of L-glutamine. Vero cells, obtained from ECACC, were suspended in culture medium and 75 μL/well was added in 96-well plates (10000 cells/well), which already contain the antiviral compounds. […] In addition, each plate contains wells which are assigned as virus controls (containing cells and virus in the absence of compound) and cell controls (containing cells in the absence of virus and compound). Once the cells were added in the plates, the plates were incubated in a fully humidified incubator (37° C., 5% CO2) until the next day. Dengue viruses serotype-1, 2, 3 and 4 were diluted in order to obtain a Cp of ˜22-24 in the assay. Therefore, 25 μL of virus suspension was added to all the wells containing test compound and to the wells assigned as virus control. In parallel, 25 μL of culture medium was added to the cell controls. Next, the plates were incubated for 3 days in a fully humidified incubator (37° C., 5% CO2). After 3 days, the supernatant was removed from the wells and the cells were washed twice with ice-cold PBS (˜100 μL). The cell pellets within the 96-well plates were stored at −80° C. for at least 1 day. Next, RNA was extracted using the Cells-to-CT™ lysis kit, according to the manufacturer's guideline (Life Technologies). The cell lysates can be stored at −80° C. or immediately used in the reverse transcription step.
(§3) In preparation of the reverse transcription step, mix A (table 3A) was prepared and 7.57 μL/well was dispensed in a 96-well plate. After addition of 5 μL of the cell lysates, a five minute denaturation step at 75° C. was performed (table 3B). Afterwards, 7.43 μL of mix B was added (table 3C) and the reverse transcription step was initiated (table 3D) to generate cDNA.
(§4) Finally, a RT-qPCR mix was prepared, mix C (table 4A), and 22.02 μL/well was dispensed in 96-well LightCycler qPCR plates to which 3μL of cDNA was added and the qPCR was performed according to the conditions in table 4B on a LightCycler 480.
(§5) Using the LightCycler software and an in-house LIMS system, dose response curves for each compound were calculated and the half maximal effective concentration (EC50) and the half maximal cytotoxic concentration (CC50) were determined (Tables 5-8).

DENV-4 strain H241 = assay: Tetravalent RT-qPCR assay, serotype 4; format: cell-based, Dengue virus; conditions: Dengue virus, DENV4, Vero, 72 h, RT-qPCR serotype 4 H241, Protocol A, Vero cells, day 3
Protocol: as §1, §2, §3, §4, §5

in vitro [1] = format: cell-based; conditions: African green monkey
Protocol: as §1, §2, §5

DENV-2 strain 16681 = assay: Tetravalent RT-qPCR assay, serotype 2; format: cell-based, Dengue virus; conditions: Dengue virus, DENV2, Vero, 72 h, RT-qPCR serotype 2 16681, Protocol A, Vero cells, day 3
Protocol: as §1, §2, §3, §4, §5

DENV-2 16681 strain = assay: DENV-2 antiviral assay (eGFP-labeled virus in Vero cells); format: cell-based, Dengue virus; conditions: DENV-2 16681 eGFP, MOI 0.5, 3 days
Protocol: The antiviral activity of all the compounds of the invention was tested the against DENV-2 16681 strain which was labeled with enhanced green fluorescent protein (eGPF). The culture medium consists of minimal essential medium supplemented with 2% of heat-inactivated fetal calf serum, 0.04% gentamycin (50 mg/mL) and 2 mM of L-glutamine. Vero cells, obtained from ECACC, were suspended in culture medium and 25 μL was added to 384-well plates (2500 cells/well), which already contain the antiviral compounds. Typically, these plates contain a 5-fold serial dilution of 9 dilution steps of the test compound at 200 times the final concentration in 100% DMSO (200 nL). […] Finally, each plate contains wells which are assigned as virus controls (containing cells and virus in the absence of compound), cell controls (containing cells in the absence of virus and compound) and medium controls (containing medium in the absence of cells, virus and compounds). To the wells assigned as medium control, 25 μL of culture medium was added instead of Vero cells. Once the cells were added to the plates, the plates were incubated for 30 minutes at room temperature to allow the cells to distribute evenly within the wells. Next, the plates were incubated in a fully humidified incubator (37° C., 5% CO2) until the next day. Then, DENV-2 strain 16681, labeled with eGFP, was added at a multiplicity of infection (MOI) of 0.5. Therefore, 15 μL of virus suspension was added to all the wells containing test compound and to the wells assigned as virus control. In parallel, 15 μL of culture medium was added to the medium and cell controls. Next, the plates were incubated for 3 days in a fully humidified incubator (37° C., 5% CO2). At the day of the read out, the eGFP fluorescence was measured using an automated fluorescence microscope at 488 nm (blue laser). Using an in-house LIMS system, inhibition dose response curves for each compound were calculated and the half maximal effective concentration (EC50) was determined. Therefore, the percent inhibition (I) for every test concentration is calculated using the following formula: I=100*(ST-SCC)/(SVC-SCC), ST, SCC and SVC are the amount of eGFP signal in the test compound, cell control and virus control wells, respectively. The EC50 represents the concentration of a compound at which the virus replication is inhibited with 50%, as measured by a 50% reduction of the eGFP fluorescent intensity compared to the virus control. The EC50 is calculated using linear interpolation (Table 1).

DENV-3 strain H87 = assay: Tetravalent RT-qPCR assay, serotype 3; format: cell-based, Dengue virus; conditions: Dengue virus, DENV3, Vero, 72 h, RT-qPCR serotype 3 H87, Protocol A, Vero cells, day 3
Protocol: as §1, §2, §3, §4, §5

Vero cells = conditions: African green monkey
in vitro [2] = conditions: African green monkey
[3] = Dengue virus, DENV2, Vero, 72 h

SMILES	EC50 (DENV-1 strain TC974#666) [nM]	EC50 (DENV-4 strain H241; read-out: EC50) [nM]	CC50 at 3 days (in vitro [1]) [nM]	EC50 (DENV-2 strain 16681) [nM]	EC50 (DENV-2 16681 strain) [nM]	EC50 (DENV-3 strain H87) [nM]	CC50 (Vero cells) [nM]	CC50 (in vitro [2]) [nM]	melting point [°C]	EC50 (DENV-2 16681 strain; [3]) [nM]	EC50 (DENV-4 strain H241) [nM]
COc1cc(NC(C(=O)N2CCc3cc(OC)c(C(F)(F)F)cc32)c2ccc(Cl)cc2)cc(OCCO)c1 (single isomer, unassigned) [Compound 7B, 2-(4-chlorophenyl)-2-((3-(2-hydroxyethoxy)-5-methoxyphenyl)amino)-1-(5-methoxy-6-(trifluoromethyl)indolin-1-yl)ethanone]	5.1	120	4100	0.96	1	30	12000	–	–	–	–
COc1cc(NC(C(=O)N2CCc3ccc(C(F)(F)F)cc32)c2ccc(Cl)cc2F)cc(OCCO)c1 (single isomer, unassigned) [Compound 2B, 2-(4-chloro-2-fluorophenyl)-2-((3-(2-hydroxyethoxy)-5-methoxyphenyl)amino)-1-(6-(trifluoromethyl)indolin-1-yl)ethanone]	2.4	170	4800	3.2	2.5	29	13000	–	–	–	–
COc1cc(NC(C(=O)N2CCc3ccc(OC(F)(F)F)cc32)c2ccc(Cl)cc2OC)cc(OCCO)c1 (single isomer, unassigned) [Compound 5A, 2-(4-chloro-2-methoxyphenyl)-2-((3-(2-hydroxyethoxy)-5-methoxyphenyl)amino)-1-(6-(trifluoromethoxy)indolin-1-yl)ethanone]	2.6	210	4700	3	1.4	20	–	9800	–	–	–
COc1cc(NC(C(=O)N2CCc3cc(OC)c(C(F)(F)F)cc32)c2ccc(Cl)cc2OC)cc(OCCO)c1 (racemic) [Compound 11, 2-(4-chloro-2-methoxyphenyl)-2-((3-(2-hydroxyethoxy)-5-methoxyphenyl)amino)-1-(5-methoxy-6-(trifluoromethyl)indolin-1-yl)ethanone]	–	–	–	–	–	–	–	22000	175	2.3	–
COc1cc(NC(C(=O)N2CCc3ccc(OC(F)(F)F)cc32)c2ccc(Cl)cc2OC)cc(OCCO)c1 (racemic) [Compound 5, 2-(4-chloro-2-methoxyphenyl)-2-((3-(2-hydroxyethoxy)-5-methoxyphenyl)amino)-1-(6-(trifluoromethoxy)indolin-1-yl)ethanone]	–	–	–	–	–	–	–	9300	162	4.6	–
COc1cc(NC(C(=O)N2CCc3ccc(OC(F)(F)F)cc32)c2ccc(Cl)cc2F)cc(OCCO)c1 (single isomer, unassigned) [Compound 6B, 2-(4-chloro-2-fluorophenyl)-2-((3-(2-hydroxyethoxy)-5-methoxyphenyl)amino)-1-(6-(trifluoromethoxy)indolin-1-yl)ethanone]	3.1	140	4800	2	2.5	28	12000	–	–	–	–
COc1cc(NC(C(=O)N2CCc3ccc(C(F)(F)F)cc32)c2ccc(Cl)cc2)cc(OCCO)c1 (racemic) [Compound 4, 2-(4-chlorophenyl)-2-((3-(2-hydroxyethoxy)-5-methoxyphenyl)amino)-1-(6-(trifluoromethyl)indolin-1-yl)ethanone]	–	–	–	–	–	–	–	9700	160	6.7	–
COc1cc(NC(C(=O)N2CCc3cc(F)c(C(F)(F)F)cc32)c2ccc(Cl)cc2)cc(OCCO)c1 (racemic) [Compound 12, 2-(4-chlorophenyl)-1-(5-fluoro-6-(trifluoromethyl)indolin-1-yl)-2-((3-(2-hydroxyethoxy)-5-methoxyphenyl)amino)ethanone]	–	–	–	–	–	–	–	11000	130	11	–
COc1cc(NC(C(=O)N2CCc3cc(OC)c(OC(F)(F)F)cc32)c2ccc(Cl)cc2)cc(OCCO)c1 (racemic) [Compound 13, 2-(4-chlorophenyl)-2-((3-(2-hydroxyethoxy)-5-methoxyphenyl)amino)-1-(5-methoxy-6-(trifluoromethoxy)indolin-1-yl)ethanone]	–	–	–	–	–	–	–	13000	165	4.9	–
COc1cc(NC(C(=O)N2CCc3ccc(OC(F)(F)F)cc32)c2ccc(Cl)cc2)cc(OCCO)c1 (racemic) [Compound 3, 2-(4-chlorophenyl)-2-((3-(2-hydroxyethoxy)-5-methoxyphenyl)amino)-1-(6-(trifluoromethoxy)indolin-1-yl)ethanone]	–	–	–	–	–	–	–	9500	162	5.5	–
COc1cc(NC(C(=O)N2CCc3cc(OC)c(OC(F)(F)F)cc32)c2ccc(Cl)cc2)cc(OCCO)c1 (single isomer, unassigned) [Compound 13A, 2-(4-chlorophenyl)-2-((3-(2-hydroxyethoxy)-5-methoxyphenyl)amino)-1-(5-methoxy-6-(trifluoromethoxy)indolin-1-yl)ethanone]	6.3	–	> 2500	1.5	3.5	43	12000	–	–	–	270
